Patent US20240299420A1, “TETRACYCLINE DERIVATIVE-INDUCED MITOHORMESIS MEDIATES DISEASE TOLERANCE AGAINST VIRAL INFECTIONS” (priority 2021, published 2024)
“Also recorded” adds a separate entry of the source.

Experiments:
E. coli = experiment: Minimum inhibitory concentration (MIC) of bacterial growth; format: cell-based; conditions: compared with Dox
[1] = test system: hsp-6::gfp reporter (UPR^mt); format: in vivo, Caenorhabditis elegans; conditions: for induction of MSR and in particular mitohormesis: summary of screen of 51 tetracycline derivatives; for UPR^mt activation (hsp-6::gfp reporter): 68 µM, 9-TB at 17 μM; for Activity in Worm Assay: UPR^mt induction, C. elegans hsp-6::gfp reporter, compounds at 68 µM
P. aeruginosa = experiment: Minimum inhibitory concentration (MIC) of bacterial growth; format: cell-based; conditions: compared with Dox
[2] = test system: mouse bone marrow derived macrophages (BMDM); experiment: ISG and MSR gene transcripts by RT-qPCR in BMDM; format: cell-based; conditions: 24 hours, 9-TB 1.88 μg/ml, ATc 3.75 and 7.5 μg/ml vs Dox 7.5-15 μg/ml
HEK293T cells [3] = experiment: Mitonuclear protein imbalance (MTCO1/ATP5A immunoblot) in HEK293T cells; format: cell-based, human; conditions: 24 hours, stronger than Dox
Description: The mitonuclear protein imbalance may be determined by a disbalanced ratio between a mitochondrial-encoded gene (e.g. MTCO1) versus a nuclear-encoded gene (e.g. ATP5A) of OXPHOS subunits as is illustrated by FIG. 3A.
A. Immunoblots of HEK293T cells for the OXPHOS subunits ATP5A (encoded in nuclear DNA) and MTCO1 (encoded in mitochondrial DNA) with TUBULIN serving as a control. Quantification of the relative MTCO1/ATP5A ratio is shown on the right. […] Statistical analysis was performed by ANOVA followed by Tukey post-hoc test (*p≤0.05, **p≤0.01, ***p≤0.001). Error bars represent standard error mean (SEM).
HEK293T (Human embryonic kidney 293T) cells were purchased from ATCC and have been routinely checked in the laboratory for mycoplasma contamination with the MycoProbe detection kit (R&D systems). […]
Tissues and cells were lysed using RIPA buffer (50 mM Tris-HCl pH 7.4, 150 mM NaCl, 1% NP-40, 0.5% Na-deoxycholate, 0.1% SDS, 2 mM EDTA, and 50 mM NaF) supplemented with protease and phosphatase inhibitor cocktails (Roche/Thermo Fisher Scientific). […] Protein concentration was determined by the Lowry method. […] Samples were analyzed by immunoblotting using standard procedures.

[4] = test system: mouse bone marrow derived macrophages (BMDM); experiment: IFNβ measurement in BMDM culture medium (ELISA); format: cell-based; conditions: for secretion of IFNβ: 24 hours, 9-TB 1.88 μg/ml, ATc 3.75 and 7.5 μg/ml vs Dox 7.5-15 μg/ml
[5] = test system: hsp-6::gfp reporter (UPR^mt); format: in vivo, Caenorhabditis elegans; conditions: microfluidic device; relative to Dox and cco-1 RNAi
HEK293T cells [6] = experiment: Oxygen consumption rate in HEK293T cells (Seahorse XF96); format: cell-based, human; conditions: 24 h, compared with Dox
Description: B. Oxygen consumption rate of HEK293T cells exposed to different concentrations of Dox, 9-TB, or ATc (n=8). […] Error bars represent standard error mean (SEM).
HEK293T (Human embryonic kidney 293T) cells were purchased from ATCC and have been routinely checked in the laboratory for mycoplasma contamination with the MycoProbe detection kit (R&D systems). HEK293T were grown at 37° C. in a humidified atmosphere of 5% CO2/95% air in DMEM medium with 4.5 g/L glucose (Gibco) including 10% FBS (Gibco), 1× nonessential amino acids (Invitrogen) and 5 mM penicillin/streptomycin (Invitrogen). Cells were treated for 24 h with the indicated doses of compounds 24 hours after seeding. Oxygen consumption rate was measured with the Seahorse XF96 instrument (Seahorse Bioscience) according to the manufacturer's protocol.

[7] = test system: IFV-A H1N1 PR8 infected BALB/cN mice; experiment: RNA-Seq and GSEA of lung, liver and kidney of IFV infected mice (175 PFU, day 7)
IFV H1N1 PR8 strain [8] = experiment: IFV infection in BALB/cN mice, 760 PFU, therapeutic treatment; format: in vivo, mouse; conditions: 9-TB 0.025 and 0.05 mpkd from day 1 post-inoculation, trend, not significant
Excerpt: A. Comparison of bacterial community composition by nonmetric multidimensional scaling (NMDS) based on the Bray-Curtis dissimilarity. B. Comparison of bacterial species diversity in terms of Shannon diversity index (SDI) and richness. Statistical significance assessed by Kruskal-Wallis test and post-hoc Wilcoxon test with p-value adjusted for multiple comparison using the Holm-Bonferroni method. ‘****’: p<0.0001, ‘***’: p<0.001, ‘**’: p<0.01, ‘*’: p<0.05, ‘ns’: p>0.05. C-D. 8-weeks old BALB/cN mice (n=12) were infected intranasally with 760 PFU of IFV-A H1N1 PR8 and injected with 9-TB (0.05, 0.025 mpkd). Survival (C) and clinical score (D) were followed for 14 days post-infection (n=12). Statistical analysis was performed by ANOVA followed by Tukey post-hoc test (*p≤0.05, **p≤0.01, ***p≤0.001). For survival curves, statistical analysis was performed by Log-rank (Mantel-Cox) test (*p≤0.05, **p≤0.01, ***p≤0.001). Error bars represent standard error mean (SEM).
A. Descriptive scheme of the mouse IFV infection experiment depicted in FIG. 5C-D, S5B. B. 8-weeks old BALB/cN mice (n=12) were infected intranasally with 760 PFU of IFV-A H1N1 PR8 and injected with 9-TB (0.05, 0.025 mpkd). Body weight was followed for 14 days post-inoculation (n=12). C. […]

IFV H1N1 PR8 strain [9] = experiment: IFV infection in BALB/cN mice, 1000 PFU, preventive treatment; format: in vivo, mouse; conditions: Dox 50 mpkd
gut bacterial community = conditions: Dox 40 mpkd; for gut bacterial community composition (perMANOVA, NMDS): after 3 and 6 days of treatment, 9-TB 1 mpkd, vs untreated mice
HEK293T cells [10] = experiment: MSR gene transcripts by RT-qPCR in HEK293T cells; format: cell-based, human; conditions: 24 h, compared with Dox
Description: Transcript levels of the indicated MSR genes measured by RT-qPCR (n=4).
HEK293T (Human embryonic kidney 293T) cells were purchased from ATCC and have been routinely checked in the laboratory for mycoplasma contamination with the MycoProbe detection kit (R&D systems). HEK293T were grown at 37° C. in a humidified atmosphere of 5% CO2/95% air in DMEM medium with 4.5 g/L glucose (Gibco) including 10% FBS (Gibco), 1× nonessential amino acids (Invitrogen) and 5 mM penicillin/streptomycin (Invitrogen). Cells were treated for 24 h with the indicated doses of compounds 24 hours after seeding.
RNA from cells and tissues was extracted using TRIzol and then reverse-transcribed into cDNA by the QuantiTect Reverse Transcription Kit (Qiagen) following the manufacturer's instructions. The qPCR reactions were performed using the LightCycler 480 II system and SYBR Green qPCR Master mix (Roche). All results are presented relative to the mean of housekeeping genes (ΔΔCt method). All mRNA expression levels were corrected for expression of the housekeeping gene 36B4 or Actb for samples of mouse origin, ACTB for samples of human origin.

IFV H1N1 PR8 strain [11] = experiment: IFV infection in BALB/cN mice, 175 PFU, preventive treatment; format: in vivo, mouse; conditions: for survival (mice recovering): Dox 40 mpkd or 9-TB 1 mpkd daily i.p., all control mice dead by day 11
germ-free C57BL/6J mice = format: in vivo, mouse; conditions: Dox 500 mpkd in drinking water, 16 days, vs control
Excerpt: B. Volcano plots displaying-log(adj. p-value) and the log fold change (FC) in expression of genes in kidney and liver. Above the graph, the number of differentially expressed genes is indicated (genes with adjusted p value (adj.pval)<0.05). C. […] E. Immunoblots of phosphorylated elF2α (pelF2α) and total elF2α and quantification in liver of Dox-treated germ-free mice.
Body weight at the time of the sacrifice was not different between the control and Dox-treated animals (FIG. 7A), indicating the absence of obvious adverse effects. […] Dox elicited organ-specific transcriptional responses, with the expression of remarkably more genes and different being affected in the kidney compared to the liver (FIG. 7B-C). […] The MSR features the induction of mitochondrial chaperones and proteases, such as Hspa9 and Lonp1, as well as of enzymes mediating adaptation to nutrient deprivation, such as asparagine synthetase (ASNS), which were increased at both the transcript and protein levels (FIG. 1C-D). […] Dox-treated germ-free mice kidneys thus gathered the typical attributes of the ATF4-ISR, a hallmark of the mammalian response to mitochondrial stress.
Male 9 weeks-old C57BL/6J mice were treated for 16 days with 500 mg/kg/day doxycycline hyclate (Sigma) in drinking water. Mice were housed with ad libitum access to water and food and kept under a 12-hour dark/12-hour light cycle. […]

Molecule: CN(C)[C@@H]1C(O)=C(C(N)=O)C(=O)[C@@]2(O)C(O)=C3C(=O)c4c(O)ccc(Br)c4C[C@H]3C[C@@H]12 [7-bromo sancycline]
- MIC for E. coli (E. coli): significantly higher MIC
- induction of MSR and in particular mitohormesis [1]: strongly induce MSR
- MIC for P. aeruginosa (P. aeruginosa): significantly higher MIC

Molecule: C[C@H]1c2ccc(C(C)(C)C)c(O)c2C(O)=C2C(=O)[C@]3(O)C(O)=C(C(N)=O)C(=O)[C@@H](N(C)C)[C@@H]3[C@@H](O)[C@@H]21 [9-TB, 9-tert-butyl-doxycycline]
- induction of the ISGs and MSR genes [2]: superior to Dox
- impact on the mitonuclear protein imbalance (HEK293T cells [3]): ~2 fold
- secretion of IFNβ [4]: superior to Dox
- UPR^mt induction, dose-response (GFP signal) [5]: more efficacious at lower doses; also recorded: surpassing the robust UPR^mt caused by cco-1 RNAi feeding
- basal oxygen consumption rate (OCR) (HEK293T cells [6]): reduced basal oxygen consumption rate (OCR) in a dose-dependent and more pronounced fashion than Dox
- inflammatory and immune-related terms in the lungs (GSEA) ([7]; 9-TB 1 mpkd vs control IFV-infected): significantly down-regulated
- immune-related and inflammatory gene sets in liver and kidney (GSEA) ([7]; 9-TB 1 mpkd, Dox 40 mpkd): down-regulated
- lung cell type transcript profiles (GSEA) ([7]; 9-TB 1 mpkd, Dox 40 mpkd): reverted the loss of multiple cell types crucial to lung function
- MIC for E. coli (E. coli): significantly higher MIC
- survival (IFV H1N1 PR8 strain [8]): 20%
- UPR^mt activation (hsp-6::gfp reporter) [1]: strongest activators
- induction of MSR and in particular mitohormesis [1]: strongest inducer of MSR
- mortality and decline in health (IFV H1N1 PR8 strain [9]; 9-TB 12.5 mpkd i.p.): delayed mortality
- viral titer in the lungs (IFV H1N1 PR8 strain [9]; day 5 post-infection, 9-TB 12.5 mpkd): absence of an impact on the viral titer
- gut bacterial community composition (perMANOVA, NMDS) (gut bacterial community): no differences were observed
- induction of transcripts for the mammalian MSR signature genes (HEK293T cells [10]): more prominent
- MIC for P. aeruginosa (P. aeruginosa): significantly higher MIC
- survival (mice recovering) (IFV H1N1 PR8 strain [11]): 50%
- viral titer in the lung tissue (IFV H1N1 PR8 strain [11]; day 7 post infection, Dox 40 mpkd, 9-TB 1 mpkd): no significant difference in viral titer

Molecule: Nc1ccn([C@H]2CC[C@@H](CO)O2)c(=O)n1 [ddC, 2′,3′-dideoxycytidine, reference compound]
- effect on Dox-induced secretion of IFNβ ([4]; ddC 100 μM for 72 hours, Dox 30 μg/ml for 14 hours): abrogated

Molecule: 7,9-bis(2,6-difluoro-4-pyridynyl)-sancycline [7,9-bis3POyr26 diF dox]
- MIC for E. coli (E. coli): significantly higher MIC
- induction of MSR and in particular mitohormesis [1]: strongly induce MSR
- MIC for P. aeruginosa (P. aeruginosa): significantly higher MIC

Molecule: 8-bromo sancycline
- MIC for E. coli (E. coli): significantly higher MIC
- induction of MSR and in particular mitohormesis [1]: strongly induce MSR
- MIC for P. aeruginosa (P. aeruginosa): significantly higher MIC

Molecule: Cc1c2c(c(O)c3c(O)cccc13)C(=O)[C@]1(O)C(=O)C(C(N)=O)=C(O)[C@@H](N(C)C)[C@@H]1C2 [ATc, anhydrotetracycline]
- induction of the ISGs and MSR genes [2]: superior to Dox
- impact on the mitonuclear protein imbalance (HEK293T cells [3]): ~2 fold
- secretion of IFNβ [4]: superior to Dox
- UPR^mt induction, dose-response (GFP signal) [5]: more efficacious at lower doses
- basal oxygen consumption rate (OCR) (HEK293T cells [6]): reduced basal oxygen consumption rate (OCR) in a dose-dependent and more pronounced fashion than Dox
- UPR^mt activation (hsp-6::gfp reporter) [1]: strongest activators
- induction of MSR and in particular mitohormesis [1]: strongly induce MSR
- induction of transcripts for the mammalian MSR signature genes (HEK293T cells [10]): more prominent

Molecule: CC(C)SCC1c2cccc(O)c2C(=O)C2=C(O)[C@]3(O)C(=O)C(C(N)=O)=C(O)[C@@H](N(C)C)[C@@H]3[C@@H](O)[C@@H]21 (stereo partly drawn) [13-isopropylthio dihydro methacycline]
- Activity in Worm Assay [1]: slight

Molecule: CN(C)c1cc(NC(=O)CN2CCCC2)c(O)c2c1C[C@H]1C[C@H]3[C@H](N(C)C)C(O)=C(C(N)=O)C(=O)[C@@]3(O)C(O)=C1C2=O [9-(pyrrolidinyl-methylcarbonyl) aminominocycline]
- Activity in Worm Assay [1]: inactive

Molecule: C[C@H]1c2cccc(O)c2C(=O)C2=C(O)[C@]3(O)C(=O)C(C(N)=O)=C(O)[C@@H](N(C)C)[C@@H]3[C@@H](O)[C@@H]21 [Dox, doxycycline]
- Body weight at the time of the sacrifice (germ-free C57BL/6J mice): not different
- gene sets involved in cytopathic processes and fibrosis in liver and kidney ([7]; Dox 40 mpkd): induced
- bacterial species diversity (Shannon diversity index and richness) (gut bacterial community): lower bacterial species diversity
- gut bacterial community composition (perMANOVA, NMDS) (gut bacterial community): significant difference in composition
- survival (mice recovering) (IFV H1N1 PR8 strain [11]): 50%

Molecule: CN(C)[C@@H]1C(O)=C(C(N)=O)C(=O)[C@@]2(O)C(O)=C3C(=O)c4c(O)ccc(/C=C/c5ccccc5)c4C[C@H]3C[C@@H]12 [7-(1-styrylphenyl) sancycline]
- Activity in Worm Assay [1]: inactive

Molecule: CN(C)[C@@H]1C(O)=C(C(N)=O)C(=O)[C@@]2(O)C(O)=C3C(=O)c4c(O)cccc4/C(=C\c4ccc(Br)cc4)[C@H]3[C@H](O)[C@@H]12 [13-(4′-bromophenyl) methacycline]
- Activity in Worm Assay [1]: slight

Molecule: CN(C)[C@@H]1C(O)=C(C(N)=O)C(=O)[C@@]2(O)C(O)=C3C(=O)c4c(O)cccc4[C@@](C)(O)[C@H]3[C@H](O)[C@@H]12 [oxytetracycline, reference compound]
- Activity in Worm Assay [1]: slight

Molecule: C=C1C(=O)c2c(O)ccc(N(C)C)c2C[C@H]1C[C@H](C)[C@@H](C)N(C)C [2N-1,1′-dimethylbutane minocycline]
- Activity in Worm Assay [1]: slight
